Assay results: the supplement of paper PMC10307832

Experiments:
Experiment in all cases: relative viability (nuclei count vs DMSO), 5 days (fraction); higher = more cells survive
[1] = compound: COC1=CC=C(C=C1)CN2C=CC3=C2C=C(C=C3)C(=O)NO + COc1cccc2cc(-c3nc([C@H]4CC[C@H](C(=O)O)CC4)n4ncnc(N)c34)[nH]c12 [OSI-027] (partner 0.5 µM)
Method in brief: (§1)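 Relative viability is defined as nuclei in treated wells over nuclei in vehicle wells. Duplicate plates were run and medians reported. Lung cancer cell lines in 1536-well plates were dosed by pin tool one day after seeding, with one drug or with a fixed anchor-drug dose plus five library-drug doses (not always all listed) in √10 steps, and nuclei were counted after 5 days.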

[2] = compound: COC1=CC=C(C=C1)CN2C=CC3=C2C=C(C=C3)C(=O)NO + CS(=O)(=O)N1CCN(Cc2cc3nc(-c4cccc5[nH]ncc45)nc(N4CCOCC4)c3s2)CC1 [Pictilisib] (partner 1 µM)
Method in brief: as §1

[3] = compound: COC1=CC=C(C=C1)CN2C=CC3=C2C=C(C=C3)C(=O)NO + C[C@]1(O)C[C@@H](c2nc(-c3ccc4ccc(-c5ccccc5)nc4c3)c3c(N)nccn32)C1 [Linsitinib] (partner 1 µM)
Method in brief: as §1

[4] = compound: COC1=CC=C(C=C1)CN2C=CC3=C2C=C(C=C3)C(=O)NO + Cc1cc(Nc2cc(N3CCN(C)CC3)nc(Sc3ccc(NC(=O)C4CC4)cc3)n2)n[nH]1 [Tozasertib] (partner 0.1 µM)
Method in brief: as §1

| Cell Line | relative viability ([1]; first compound 0.08 µM) | relative viability ([1]; first compound 0.253 µM) | relative viability ([1]; first compound 0.8 µM) | relative viability ([1]; first compound 2.53 µM) | relative viability ([1]; first compound 8 µM) | relative viability ([2]; first compound 0.08 µM) | relative viability ([2]; first compound 0.253 µM) | relative viability ([2]; first compound 0.8 µM) | relative viability ([2]; first compound 2.53 µM) | relative viability ([2]; first compound 8 µM) | relative viability ([3]; first compound 0.08 µM) | relative viability ([3]; first compound 0.253 µM) | relative viability ([3]; first compound 0.8 µM) | relative viability ([3]; first compound 2.53 µM) | relative viability ([3]; first compound 8 µM) | relative viability ([4]; first compound 0.08 µM) | relative viability ([4]; first compound 0.253 µM) | relative viability ([4]; first compound 0.8 µM) | relative viability ([4]; first compound 2.53 µM) | relative viability ([4]; first compound 8 µM) |
| --- | --- | --- | --- | --- | --- | --- | --- | --- | --- | --- | --- | --- | --- | --- | --- | --- | --- | --- | --- | --- |
| NCI-H23 | 0.511 | 0.68 | 0.582 | 0.732 | 0.53 | 0.275 | 0.538 | 0.49 | 0.559 | 0.349 | 0.406 | 0.619 | 0.564 | 0.599 | 0.544 | 0.292 | 0.352 | 0.358 | 0.301 | 0.281 |
| NCI-H322M | – | 0.529 | 0.555 | 0.397 | 0.487 | – | 0.542 | 0.544 | 0.501 | 0.45 | – | 0.934 | 0.931 | 0.946 | 0.926 | – | 0.497 | 0.525 | 0.485 | 0.439 |
| NCI-H358 | – | 0.861 | 0.722 | 0.739 | 0.67 | – | 0.429 | 0.422 | 0.337 | 0.296 | – | 0.903 | 0.792 | 0.742 | 0.851 | – | 0.0969 | 0.108 | 0.131 | 0.0806 |
| NCI-H441 | 0.715 | 0.709 | 0.644 | 0.621 | 0.459 | 0.344 | 0.613 | 0.548 | 0.572 | 0.438 | 0.304 | 0.676 | 0.573 | 0.579 | 0.42 | 0.679 | 0.604 | 0.561 | 0.768 | 0.493 |
| NCI-H460 | 0.547 | 0.721 | 0.664 | 0.607 | 0.595 | 0.0712 | 0.248 | 0.405 | 0.377 | 0.348 | 0.553 | 0.879 | 0.714 | 0.705 | 0.776 | 0.309 | 0.381 | 0.422 | 0.411 | 0.195 |
| NCI-H520 | 0.218 | 0.278 | 0.329 | 0.319 | 0.279 | 0.265 | 0.266 | 0.314 | 0.276 | 0.271 | 0.313 | 1.04 | 1.01 | 0.977 | 0.946 | – | 0.453 | 0.428 | 0.449 | 0.375 |
| NCI-H596 | 0.79 | 0.779 | 0.768 | 0.721 | 0.598 | 0.349 | 0.408 | 0.411 | 0.468 | 0.409 | 0.982 | 1.08 | 1.01 | 0.915 | 0.992 | 1.05 | 0.823 | 0.872 | 0.938 | 0.743 |
| NCI-H647 | 0.531 | 0.752 | 0.49 | 0.634 | 0.492 | – | 0.42 | 0.523 | 0.373 | 0.308 | 0.886 | 1.01 | 1.2 | 1.28 | 1.02 | 0.224 | 0.237 | 0.314 | 0.262 | 0.267 |
| NCI-H650 | 0.524 | 0.494 | 0.52 | 0.526 | 0.438 | 0.901 | 0.895 | 0.856 | 0.861 | 0.829 | 0.793 | 0.849 | 0.95 | 0.936 | 0.725 | 0.595 | 0.69 | 0.786 | 0.673 | 0.672 |
| NCI-H661 | – | 0.78 | 0.727 | 0.658 | 0.625 | – | 0.358 | 0.35 | 0.375 | 0.318 | – | 0.525 | 0.555 | 0.521 | 0.46 | – | 0.356 | 0.369 | 0.328 | 0.329 |
| NCI-H727 | 0.592 | 0.576 | 0.513 | 0.809 | 0.534 | 0.344 | 0.299 | 0.553 | 0.306 | 0.488 | 0.214 | 0.355 | 0.298 | 0.256 | 0.298 | 0.592 | 0.529 | 0.772 | 0.602 | 0.625 |
| NCI-H838 | – | 0.361 | 0.41 | 0.395 | 0.398 | – | 0.464 | 0.512 | 0.413 | 0.399 | – | 1.13 | 1.13 | 1.08 | 0.961 | – | 0.267 | 0.293 | 0.274 | 0.267 |
| NCI-H1355 | – | 0.409 | 0.463 | 0.457 | 0.38 | 0.156 | 0.501 | 0.489 | 0.498 | 0.372 | 0.792 | 0.826 | 0.812 | 0.895 | 0.809 | – | 0.548 | 0.585 | 0.531 | 0.515 |
| NCI-H1395 | 0.562 | 0.579 | 0.628 | 0.667 | 0.549 | 0.683 | 0.653 | 0.58 | 0.583 | 0.505 | 0.773 | 1.28 | 1.11 | 1.08 | 0.918 | 0.673 | 0.817 | 0.761 | 0.781 | 0.565 |
| NCI-H1437 | 0.774 | 0.907 | 0.897 | 0.807 | 0.907 | 0.47 | 0.449 | 0.473 | 0.481 | 0.412 | 0.847 | 1.1 | 1.01 | 1 | 1.13 | 0.321 | 0.446 | 0.395 | 0.42 | 0.409 |
| NCI-H1651 | 0.682 | 0.764 | 0.758 | 0.622 | 0.627 | 0.572 | 0.427 | 0.606 | 0.65 | 0.452 | 0.939 | 1.01 | 1.08 | 0.869 | 0.716 | 0.574 | 0.717 | 0.799 | 0.713 | 0.645 |
| NCI-H1666 | 0.818 | 0.906 | 0.873 | 0.946 | 0.85 | 0.523 | 0.49 | 0.47 | 0.525 | 0.525 | 0.696 | 0.892 | 0.757 | 0.76 | 0.901 | 0.498 | 0.622 | 0.571 | 0.641 | 0.628 |
| NCI-H1734 | – | 0.641 | 0.558 | 0.608 | 0.527 | – | 0.487 | 0.437 | 0.384 | 0.416 | – | 0.953 | 0.871 | 0.93 | 0.855 | – | 0.236 | 0.242 | 0.251 | 0.23 |
| NCI-H1755 | 0.632 | 0.746 | 0.732 | 0.732 | 0.708 | 0.267 | 0.458 | 0.51 | 0.383 | 0.363 | 0.955 | 0.987 | 1 | 1.04 | 1.02 | 0.512 | 0.688 | 0.619 | 0.584 | 0.524 |
| NCI-H1793 | – | 0.296 | 0.267 | 0.328 | 0.248 | 0.17 | 0.239 | 0.395 | 0.267 | 0.335 | 0.934 | 0.941 | 1.09 | 0.976 | 0.86 | – | 0.337 | 0.297 | 0.398 | 0.3 |
| NCI-H1915 | 0.564 | 0.656 | 0.643 | 0.599 | 0.532 | 0.62 | 0.997 | 1.08 | 0.973 | 0.735 | 1.05 | 1.1 | 1.07 | 1.09 | 1.09 | 0.259 | 0.431 | 0.422 | 0.355 | 0.401 |
| NCI-H1944 | – | 0.427 | 0.401 | 0.407 | 0.375 | – | 0.37 | 0.317 | 0.357 | 0.322 | – | 1.18 | 1.38 | 1.21 | 1.1 | – | 0.262 | 0.261 | 0.262 | 0.234 |
| NCI-H1975 | 0.724 | 0.703 | 0.742 | 0.723 | 0.638 | 0.304 | 0.297 | 0.281 | 0.299 | 0.252 | 0.929 | 1.07 | 0.956 | 0.931 | 0.863 | 0.69 | 0.852 | 0.707 | 0.692 | 0.551 |
| NCI-H1993 | 0.525 | 0.626 | 0.53 | 0.571 | 0.521 | 0.717 | 0.0552 | 0.772 | 0.837 | 0.756 | 0.738 | 0.783 | 0.785 | 0.759 | 0.741 | 0.568 | 0.627 | 0.517 | 0.6 | 0.567 |
| NCI-H2009 | 0.647 | 0.714 | 0.619 | 0.618 | 0.491 | 0.601 | 0.836 | 0.91 | 0.788 | 0.604 | 1.21 | 1.17 | 1.13 | 1.21 | 1.19 | 0.65 | 0.514 | 0.741 | 0.73 | 0.64 |
| NCI-H2023 | 0.369 | 0.406 | 0.418 | 0.372 | 0.344 | 0.105 | 0.239 | 0.227 | 0.236 | 0.202 | 0.576 | 0.645 | 0.64 | 0.7 | 0.637 | 0.296 | 0.314 | 0.415 | 0.389 | 0.396 |
| NCI-H2085 | 0.888 | 0.754 | 0.746 | 0.982 | 0.731 | 0.44 | 0.491 | 0.53 | 0.492 | 0.426 | 0.794 | 0.921 | 0.931 | 0.925 | 0.934 | 0.859 | 0.817 | 0.96 | 0.907 | 0.751 |
| NCI-H2087 | 0.626 | 0.632 | 0.592 | 0.561 | 0.347 | 0.497 | 0.936 | 0.776 | 0.976 | 0.674 | 0.902 | 0.969 | 0.95 | 0.883 | 0.921 | 0.253 | 0.293 | 0.246 | 0.294 | 0.234 |
